For five molecules, IC50 results are on record in BindingDB's records for patent US11401286 (Tetra Discovery Partners, LLC, 2022).

The target of assay [1] is Isoform 7 of cAMP-specific 3',5'-cyclic phosphodiesterase 4D (Human, UniProt Q08499). Nature of the assay: Kinetic Assay.
Assay [2] addresses cAMP-specific 3',5'-cyclic phosphodiesterase 4B [S133D] (Human, UniProt Q07343, S133D). The assay can be described thus: Kinetic Assay.

SMILES strings stand for the structures.

cAMP-specific 3',5'-cyclic phosphodiesterase 4B [S133D], sequence (Q07343 whole entry S133D): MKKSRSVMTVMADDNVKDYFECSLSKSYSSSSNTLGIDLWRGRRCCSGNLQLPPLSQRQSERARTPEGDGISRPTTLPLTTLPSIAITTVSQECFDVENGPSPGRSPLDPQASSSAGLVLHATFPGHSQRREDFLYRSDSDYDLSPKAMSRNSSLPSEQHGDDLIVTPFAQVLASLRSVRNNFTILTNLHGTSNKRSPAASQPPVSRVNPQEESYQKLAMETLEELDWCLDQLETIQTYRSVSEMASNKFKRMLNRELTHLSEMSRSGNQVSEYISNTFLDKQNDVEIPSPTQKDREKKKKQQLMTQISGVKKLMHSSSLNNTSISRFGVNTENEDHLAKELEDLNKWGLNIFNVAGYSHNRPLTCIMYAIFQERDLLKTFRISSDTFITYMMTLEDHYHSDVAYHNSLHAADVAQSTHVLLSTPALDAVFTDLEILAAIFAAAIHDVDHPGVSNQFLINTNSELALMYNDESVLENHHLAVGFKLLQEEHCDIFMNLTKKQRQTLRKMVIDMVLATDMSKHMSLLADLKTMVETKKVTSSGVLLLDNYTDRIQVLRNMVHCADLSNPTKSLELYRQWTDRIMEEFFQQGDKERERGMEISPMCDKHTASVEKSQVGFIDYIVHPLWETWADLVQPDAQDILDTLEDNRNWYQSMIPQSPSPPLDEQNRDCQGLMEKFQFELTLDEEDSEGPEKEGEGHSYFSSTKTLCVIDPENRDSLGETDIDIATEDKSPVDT
Isoform 7 of cAMP-specific 3',5'-cyclic phosphodiesterase 4D, sequence (Q08499 as listed by the source): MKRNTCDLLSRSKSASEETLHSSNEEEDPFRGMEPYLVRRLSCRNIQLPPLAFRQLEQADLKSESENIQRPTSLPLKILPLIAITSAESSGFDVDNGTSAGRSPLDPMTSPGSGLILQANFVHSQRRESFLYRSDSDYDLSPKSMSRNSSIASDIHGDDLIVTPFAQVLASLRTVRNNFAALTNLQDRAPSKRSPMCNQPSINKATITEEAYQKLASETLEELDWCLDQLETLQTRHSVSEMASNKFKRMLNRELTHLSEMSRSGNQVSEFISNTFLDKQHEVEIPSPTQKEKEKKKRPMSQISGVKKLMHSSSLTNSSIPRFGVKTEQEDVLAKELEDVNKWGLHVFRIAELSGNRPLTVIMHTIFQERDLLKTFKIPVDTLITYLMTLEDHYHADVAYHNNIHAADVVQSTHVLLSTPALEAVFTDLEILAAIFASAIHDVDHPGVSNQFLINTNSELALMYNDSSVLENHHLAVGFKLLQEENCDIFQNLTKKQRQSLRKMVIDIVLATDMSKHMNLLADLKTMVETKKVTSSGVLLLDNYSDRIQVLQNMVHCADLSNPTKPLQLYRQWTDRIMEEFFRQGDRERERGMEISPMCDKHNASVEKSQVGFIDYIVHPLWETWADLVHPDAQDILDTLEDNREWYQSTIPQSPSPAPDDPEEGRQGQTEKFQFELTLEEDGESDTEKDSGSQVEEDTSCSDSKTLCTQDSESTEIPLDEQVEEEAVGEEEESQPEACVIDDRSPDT

Take `Cc1nc(Nc2ccc(CC(=O)O)cc2)nc(-c2ccc(Cl)s2)n1` [US11401286, Example 22]: the IC50 in assay [1] and in assay [2] was greater than 1000 nM in each case.
In the case of `OCCc1ccc(Nc2cc(-c3cccc(Cl)c3)nc3c2CCC3)cn1` [US11401286, Example 90], the IC50 in assay [1] and in assay [2] was greater than 1000 nM throughout.
In the case of `N#CC1CCC(c2cc(Nc3ccc(CC(N)=O)cc3)c3c(n2)CCC3)C1` (centres undefined) [US11401286, Example 138], the values for the IC50 in assay [1] and in assay [2] were greater than 1000 nM and less than 1000 nM, respectively.
For `NC(=O)Cc1ccc(Nc2cc(C3CCCC3)nc3c2CCC3)cc1` [US11401286, Example 247], the concentration for half-maximal inhibition (IC50) in assay [1] was greater than 1000 nM; in assay [2] it was less than 1000 nM.
Consider `CCc1c(C)nc(-c2ccc(Cl)s2)nc1Nc1ccc(Cn2nccn2)cc1` [US11401286, Example 300], for which, in assay [2], the IC50 was less than 1000 nM.
